Measured values as given in patent publication US12398110B2, “Second generation inhibitors of mitochondrial permeability transition pore with improved plasma stability” (Oregon Health & Science University, priority 2019, dated 2025).

How the values were obtained:
mtPTP = test: Ca2+ overload induced mitochondrial swelling in isolated mouse liver mitochondria; format: biochemical; conditions: isolated mouse liver mitochondria; average ± SEM, n = 3-41; read-out: Mitochondrial Swelling EC50
Description: We next sought to evaluate the effects of TR001-13 on mtPTP activity in vitro. This was performed on isolated mitochondria. In isolated mitochondria induction of mtPTP opening leads to mitochondrial swelling due to the oncotic pressure gradient created by matrix proteins >1.5 kDa that cannot diffuse through the open pore. In in vitro experiments, where isolated mitochondria are routinely suspended in sucrose-based isosmotic solutions, the change in mitochondrial size can be measured spectrometrically by detecting the decrease in light scattering at 540 nm.
Isolation of mitochondria. C57BL6/N mouse liver mitochondria were prepared from 2 to 6 month old male mice by standard differential centrifugation. Mice fed ad libitum were euthanized with CO2 followed cervical dislocation, their livers were existed and placed in a glass beaker containing ice-cold isolation buffer (IB: 0.25 m sucrose, 10 mm Tris-HCl, 0.1 mm EGTA-Tris, pH 7.4) supplemented with fatty acid free bovine serum albumin. Livers were then cut into small pieces with scissors, rinsed with ice-cold IB, and passed through a pre-chilled Potter homogenizer with Teflon pestle. The homogenate (˜30 mL per liver) was transferred to centrifuge tubes, and unbroken cells and nuclei were removed by centrifugation at 700 g for 10 min at 4° C. The supernatant containing mitochondria and other organelles was transferred to new tubes and centrifuged at 6000 g for 10 min at 4° C. The resulting supernatant was discarded and mitochondrial pellet was carefully suspended in ice-cold IB and spun at 9500 g for 5 min at 4° C. The pellet was suspended in IB to give a protein concentration of ˜60-80 mg/mL and stored on ice. Experiments were started immediately and completed within 5 h. Protein concentration was determined by the Biuret method.
Assessment of mitochondrial swelling. Changes in mitochondrial volume of isolated mouse liver mitochondria were followed in a 96-well clear assay plate at a final volume of 0.2 mL and 0.25 mg/mL mitochondrial protein. Absorbance was read for 30 min at 540 nm on a Tecan Infinite F200 plate reader. Activity of test compounds was addressed as follows: First, 0.1 mL of sucrose assay buffer (SAB: 0.250 m sucrose, 10 mm MOPS-Tris, 0.01 mm EGTA-Tris, 1.0 mm phosphoric acid-Tris, 10 mm glutamate and 5 mm malate, pH 7.4) supplemented with twice the CaCl2 concentration required to induce mitochondrial swelling (which was determined for each preparation of mitochondria, typically 50 μm) was dispensed to the assay plate. A set of wells also contained 2.0 mm EGTA (to prevent mitochondrial swelling). The test wells contained a range of concentrations (in 1:2 serial dilutions) of the compounds of interest or 2% DMSO. Experiments were started by the addition of 0.1 mL of mitochondrial suspension (0.5 mg/mL mitochondria in SAB without respiratory substrates) to the assay plates. EC50s±SE were determined with OriginPro software by applying Hill1 function fitting algorithm on average concentration response data of n=3-41 independent preparations.

HeLa cells = test: HeLa cell viability assay; format: cell-based; conditions: up to 50 μm, 24 h treatment
Source text: A thorough evaluation of toxicity is critical for advancing TR001 to in vivo studies. […] To more thoroughly examine mitochondrial toxicity, we analyzed oxygen consumption rates (OCRs) using the Seahorse XF24 extracellular flux analyzer. This allowed us to assess the effects of TR001 on mitochondrial respiration and ATP synthesis. […] Consequently respiratory control ratios (i.e., the ratios between ADP-stimulated and basal respiration) were not affected across the concentrations tested (FIG. 5B). Complex III inhibitor antimycin A shuts down the electron transport chain at the bc1 complex and was used to account for oxygen leak.
Cell viability assay. HeLa cells were seeded at a density of 10^4 per well in 96-well plates and let to adhere for 6 h before treatment with varying concentrations of TR001 or vehicle (1% DMSO. After treatment for 24 h the relative viable cell number was determined with a CellTiter 96 Aqueous One Solution Cell Proliferation Assay Kit (Promega).

[1] = test system: col6a1 zebrafish morphants; test: Birefringence (muscle structure) in col6a1 zebrafish morphants; format: in vivo; conditions: 48 hpf
Description: Muscle structure was assessed by birefringence analysis at 48 hpf, a time when muscle tissue is fully developed and organized muscle fibers start to show anisotropic features. A high percentage of severe birefringence abnormality (>75%, FIG. 6C) was detected in col6a1 morphants, indicating major defects of muscle fiber development and organization.
Morpholino antisense injection and treatment. Knock-down of col6a1 gene expression was obtained with a previously published morpholino ^[25] with sequence GAGAGCGGAAGACGAACCTTCATTC (SEQ ID NO: 2; GeneTools, Inc.). A control morpholino with no sequence homology in the zebrafish genome was used in parallel (CCTCTTACCTCAGTTACAATTTATA; SEQ ID NO: 3). Zebrafish eggs from wild-type matings were injected at the 1-2 cell stage with approximately 10 nL of 0.1 mm morpholino solution (corresponding to 4 ng of morpholino) using a WPI pneumatic PicoPump PV820 injector (World Precision Instruments, Inc.). […]
Birefringence. Muscle structure was monitored by birefringence analysis, taking advantage of muscle anisotropy, which is the ability of muscle fibers to refract polarized light. […] With this set-up, light refracted by muscle fibers (due to the pseudo-crystalline array of sarcomeres) is transmitted and analyzed. Integrated area of birefringence was calculated using ImageJ software. […]

Cc1ccc(Cl)cc1NC(=O)c1cn(-c2ccc(F)c(O)c2)nn1 [TR001, N-(5-chloro-2-methylphenyl)-1-(4-fluoro-3-hydroxyphenyl)-1H-1,2,3-triazole-4-carboxamide]
EC50 (mtPTP): 29 ± 8 nM | HeLa cell viability (HeLa cells): did not exhibit any adverse effects | muscle structure by birefringence [1]: significantly rescued
